The Kd is the free concentration of one partner at which half of the binding sites on the other are occupied at equilibrium, for simple one-to-one binding. One may read the IC50 as the concentration that gives 50% inhibition.

Read-outs that look alike come from different tables or passages of the source.

The target in one data set is T1, apo APE1^ΔN38 (Homo sapiens, UniProt P27695).
T1 construct: Human APE1 lacking the 38 N-terminal residues (APE1^ΔN38); poly-His (N, cleaved yes); made in house; host or cells: E. coli
Description: NMR chemical shift perturbation (15N-TROSY), apo APE1. It is filed as binding. To be noted: for number of residues with relatively strong CSPs (Δδ ≥ 0.03 ppm) / number of residues with substantial CSPs (Δδ ≥ 0.015 ppm) / sum of CSPs (ΣΔδ) for all assigned APE1 residues: apo APE1^ΔN38 0.15 mM, compound 1 mM.

Data set [1] can be described thus: Dynamic light scattering (DLS) of compound aggregation. To be noted: for effect of detergent on aggregation: 0.05% Brij 35; for effect of centrifugation on aggregates: detergent-free buffer, centrifugation (60 min, 16000g); for concentration at which colloidal aggregates form: 20°C. The data set is classed as physicochemical. Here is the method: Dynamic light scattering (DLS) experiments were performed to monitor compound aggregation, using a SpectroLight 610 instrument (Xtal Concepts, Hamburg). The instrument features a laser diode (λ 658 nm) which was set to a power of 100 mW and a scattering angle of 150°. For each sample, five replicates of 60 sec duration were collected at 20°C. Instrument settings, including integration time, were held constant for all experiments. Samples (1 ul) were prepared under mineral oil in 96 well SBS plates. Samples included the same buffer used for enzyme activity assays, with or without Brij 35 (and in all cases without BSA). The compounds were introduced from 100x stocks prepared in DMSO, giving a final DMSO concentration of 1%; samples without compound contained 1% DMSO. The DLS studies were in some cases performed using compound stocks that had been stored at –20°C in DMSO.

In data set [2] the target is T2, Human APE1 lacking the 38 N-terminal residues (APE1^ΔN38) (Homo sapiens, UniProt P27695).
T2 construct: Human APE1 lacking the 38 N-terminal residues (APE1^ΔN38); poly-His (N, cleaved yes); made in house; host or cells: E. coli
As to the kind of experiment: APE1 endonuclease activity assay (HPLC, fraction activity). It is filed as biochemical.

A short description of data set [3]: Precipitation of compound in NMR samples. It is filed as physicochemical. To be noted: NMR buffer pH 6.5. Here is the method: The NMR sample contained 0.03 mM compound 7 and 0.05 mM APE1, giving a molar ratio of 0.6. […] To minimize precipitation of 7, the NMR samples (including DMSO control) contained detergent (0.05% Brij 35) at the same concentration used for the activity assays. […] Thus, the NMR CSP studies provide no evidence that compound 7 binds specifically to apo-APE1. […] In particular, the population of AP-DNA bound was reduced from 100% (absence of 7) to about 30% and 5% in the presence of 7 at a concentration of 0.01 mM and 0.03 mM, respectively, indicating 7 binds with a Kd <0.01 mM to either APE1 or to AP-DNA.

The test system of data set [4] is enzyme-substrate (ES) complex involving APE1 (28 nM) and AP-DNA (10 nM). Details: method as in PMID 22455312. To be noted: cited from earlier work; for population of AP-DNA bound: 100% in its absence.
The target of a further data set is T3, Mg^2+-bound APE1 (Homo sapiens, UniProt P27695).
T3 construct: Human APE1 lacking the 38 N-terminal residues (APE1^ΔN38); poly-His (N, cleaved yes); made in house; host or cells: E. coli
As to the kind of experiment: NMR chemical shift perturbation (15N-TROSY), Mg2+-bound APE1. The data set is classed as binding. To be noted: MgCl2 0.25 mM or 1.0 mM. Here is the method: NMR samples (0.55 mL) contained uniformly ^15N-labeled APE1^ΔN38 (0.05 mM to 0.15 mM) in 0.02 M sodium phosphate pH 6.5, 0.1 M NaCl, 0.5 mM DTT, 0.2 mM EDTA, 10% D2O. The compounds were dissolved at 100x concentration in deuterated DMSO (DMSO-D6) and were added to the NMR samples at 1% (v/v) to give the desired compound concentration (and 1% DMSO-D6). Control samples contained APE1 with 1% DMSO-D6. […] NMR data were processed with NMRPipe, and analyzed using NMRFAM-Sparky. The chemical shift perturbation (Δδ) for backbone ^1H-^15N resonances (combined) was calculated (by NMRFAM-Sparky) using Eq 2, Δδ=ΔδH^2+ΔδN/5^2^1/2 (2) where ΔδH and ΔδN are the perturbations for ^1H and ^15N resonances, respectively.
Given the findings above, we sought to investigate whether compounds 6 or 7 might bind to the Mg^2+-bound form of APE1. […] Crystal structures of Mg^2+-bound APE1 have been determined, using crystals grown from a sample of APE1 with 1.0 mM MgCl2, a concentration that is sufficient to fully populate the metal-binding site with Mg^2+ [52, 73]. […]

The subject of another data set is APE1. The settings on record: cited from earlier work.
Setting [5] is: 0.05% Brij 35, 0.1 mg/ml BSA, 80 nM DNA substrate, 23°C, 1% DMSO, read-out: IC50 for APE1 inhibition.
[6] abbreviates: detergent-free assay buffer, 1% DMSO.
[7] abbreviates: no detergent or BSA, 37°C, read-out: IC50 for APE1 inhibition (prior findings).
The mark [8] stands for this setting: read-out: IC50 for APE1 inhibition (reported).

T1 sequence (P27695 39-318): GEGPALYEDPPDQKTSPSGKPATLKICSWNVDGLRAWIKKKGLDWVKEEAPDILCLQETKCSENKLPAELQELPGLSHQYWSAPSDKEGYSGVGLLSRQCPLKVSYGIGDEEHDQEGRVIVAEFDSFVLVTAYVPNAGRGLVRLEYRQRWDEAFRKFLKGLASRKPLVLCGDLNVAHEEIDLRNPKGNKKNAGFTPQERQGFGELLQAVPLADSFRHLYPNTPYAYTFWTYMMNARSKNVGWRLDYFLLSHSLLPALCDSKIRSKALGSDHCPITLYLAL
T2 sequence (P27695 39-318): as above
T3 sequence (P27695 39-318): as above

Take `O=C(O)c1cc2cc([N+](=O)[O-])ccc2[nH]1` [Compound 3, 5-nitroindole-2-carboxylic acid]: at apo APE1^ΔN38, the “number of residues with relatively strong CSPs (Δδ ≥ 0.03 ppm)” value is recorded as 14, the “number of residues with substantial CSPs (Δδ ≥ 0.015 ppm)” value (“number of residues … (Δδ ≥ 0.015 ppm)” below) is reported as 20 and the “sum of CSPs (ΣΔδ) for all assigned APE1 residues” value (“sum of CSPs (ΣΔδ)” below) is reported as 2.47. In addition, in data set [1], the “effect of detergent on aggregation” value is given as “disrupted by detergent” and the “effect of centrifugation on aggregates” value is listed as “pelleted by centrifugation”.
As for `CC(=O)Nc1sc2c(c1-c1nc3ccccc3s1)CCN(C(C)C)C2` [Compound 7, N-(3-(benzo[d]-thiazol-2-yl)-6-isopropyl-4,5,6,7-tetrahydrothieno[2,3-c]-pyridin-2-yl)acetamide], at apo APE1^ΔN38 (0.05 mM apo APE1, 0.03 mM compound, 0.05% Brij 35), the “residues exhibiting Δδ >0.015 ppm” value is given as “two”. In addition, the dissociation constant (Kd) was greater than 30 µM on apo APE1^ΔN38 (inferred from the absence of a detectible interaction, apo-APE1 0.05 mM, compound 0.03 mM, read-out: Kd for binding to apo-APE1) and less than 10 µM in data set [4] (inferred from the previous EMSA results, read-out: Kd for binding to either APE1 or AP-DNA). For the same compound, in data set [2] (0.05% Brij 35, 0.1 mg/ml BSA), the “slope factor of the dependence of FA on compound concentration” value is recorded as 1.2 ± 0.1. Further, the IC50 in data set [2] (setting [5]) came out at 8.1 ± 0.6 µM. In data set [3], the “concentration at which the compound precipitates in NMR samples” value was no less than 90 µM. Also, the entries for the “population of AP-DNA bound” value in data set [4] (compound 0.01 mM) and in data set [4] (compound 0.03 mM) were “about 30%” and ~ 5%, respectively. Besides, the “CSPs (Δδ >0.015 ppm) for any backbone residue of Mg2+-bound APE1” value at Mg^2+-bound APE1 (compound 0.030 mM, APE1 0.05 mM, 0.05% Brij 35) is listed as “fails to induce CSPs”.
In the case of `O=c1c(O)c(-c2cc(O)c(O)c(O)c2)oc2cc(O)cc(O)c12` [Compound 5, myricetin], the “inhibition of APE1” value in data set [2] (0.33 mM compound, with detergent (0.05% Brij 35) and BSA) is listed as “weak inhibition”. Further, in data set [1], the “effect of detergent on aggregation” value is “disrupted by detergent” and the “effect of centrifugation on aggregates” value is reported as “pelleted by centrifugation”. For the same compound, in data set [1] (setting [6]), the “concentration at which colloidal aggregates form” value was no less than 330 µM. The IC50 with APE1 (read-out: IC50 for APE1 inhibition (previous finding)) is 0.3 µM.
Consider `Cc1cc(C)c2c(N)c3cccc(C)c3nc2n1` [Compound 6], for which, at apo APE1^ΔN38 (0.10 mM apo APE1, 0.30 mM compound), the “residues exhibiting Δδ >0.015 ppm” value is on record as “no residues”. Besides, the “slope factor of the dependence of FA on compound concentration” value in data set [2] (0.05% Brij 35, 0.1 mg/ml BSA) is on record as 1.5 ± 0.2. Further, the IC50 in data set [2] (setting [5]) is 3.1 ± 0.3 µM; in data set [2] (as restated in the NMR section, read-out: IC50 observed here) it was 3 µM; in the data set with APE1 (read-out: IC50 for APE1 inhibition in vitro (previous finding)), 2 µM. For the same compound, on Mg^2+-bound APE1 (compound 0.30 mM, APE1 0.10 mM), the “CSPs (Δδ >0.015 ppm) for any residue of Mg2+-bound APE1” value is given as “does not induce CSPs”.
For the compound `O=C(O)c1cc2cc(F)ccc2[nH]1` [Compound 2, 5-fluoroindole-2-carboxylic acid], on apo APE1^ΔN38, the “number of residues … (Δδ ≥ 0.015 ppm)” value is “ten” and the “sum of CSPs (ΣΔδ)” value came to 1.31. In data set [1], the “effect of detergent on aggregation” value is recorded as “disrupted by detergent” and the “effect of centrifugation on aggregates” value is “pelleted by centrifugation”. Besides, in data set [1] (setting [6]), the “concentrations at which the compound is free of aggregates” value was “below 3 mM” and the “concentration at which colloidal aggregates form” value is 10000 µM. Besides, the IC50 in the data set with APE1 (setting [7]) is no more than 10 µM. In the data set on APE1 (setting [8]), the IC50 was 10 µM.
Consider `O=C(O)c1cc2cccc([N+](=O)[O-])c2[nH]1` [Compound 1, 7-nitroindole-2-carboxylic acid], for which, on apo APE1^ΔN38, the “number of residues … (Δδ ≥ 0.015 ppm)” value came to 14 and the “sum of CSPs (ΣΔδ)” value is 1.19. Moreover, in data set [1], the “effect of detergent on aggregation” value is reported as “disrupted by detergent” and the “effect of centrifugation on aggregates” value is recorded as “pelleted out of solution by centrifugation”. The “concentration at which colloidal aggregates form” value in data set [1] (setting [6]) amounted to 2000 µM. Further, in the data set on APE1 (setting [7]), the IC50 is no more than 10 µM. In the data set on APE1 (setting [8]), the IC50 was 3 µM.
Consider `O=C(O)c1cc2ccc(Br)cc2[nH]1` [Compound 4, 6-bromoindole-2-carboxylic acid], for which, on apo APE1^ΔN38, the “number of residues with relatively strong CSPs (Δδ ≥ 0.03 ppm)” value is reported as “eight”, the “number of residues … (Δδ ≥ 0.015 ppm)” value was found to be 22 and the “sum of CSPs (ΣΔδ)” value amounted to 2.54. In data set [1], the “effect of detergent on aggregation” value is recorded as “disrupted by detergent” and the “effect of centrifugation on aggregates” value was “pelleted by centrifugation”. In addition, the “concentration at which colloidal aggregates form” value in data set [1] (setting [6]) is no less than 1000 µM.

Values taken from paper PMC9847973, “Characterizing inhibitors of human AP endonuclease 1” (PLOS ONE, 2023).
